Marks after values point to notes of the source that are not given here.
Columns and labels:
ACAT = ACAT inhibitory activity (small intestine mucosa microsomes, [1-14C]-oleoyl CoA, cholesteryl oleate production); type: biochemical, rabbit; details: inhibition of cholesteryl oleate production vs control
Description: A high cholesterol feed [a feed added with cholesterol (1%), Clea Japan, Inc.] was fed to male Japanese white rabbits weighing 2-2.5 kg at 100 g per day and the rabbits were bred for 4 weeks. The rabbits were killed by bleeding under anesthesia and small intestine was removed. The mucous membrane of small intestine was peeled, collected and homogenated. The homogenate was centrifuged at 4° C. and 10,000 rpm for 15 min. The obtained supernatant was further centrifuged at 4° C. and 41,000 rpm for 30 minutes to give microsomal fractions. Using this microsomal suspension as an enzyme sample, dimethyl sulfoxide (DMSO, 5 μl) or a test compound dissolved in DMSO (test compound solution, 5 μl), and a reaction substrate [1-^14C]-oleoyl CoA were added to a reaction buffer. After incubation at 37° C. for 5 minutes, a chloroform-methanol mixture was added to stop the reaction. Water was added thereto and mixed, and chloroform layer was separated. The solvent was evaporated to dryness, and the residue was dissolved in hexane. The mixture was subjected to thin layer chromatography using a silica gel plate. The spots of cholesteryl oleate on the silica gel plate were scraped, and quantitatively assayed on a liquid scintillation counter. The ACAT inhibitory activity of the test compound was expressed as a proportion (%) of inhibition of cholesteryl oleate, namely, the proportion of inhibition of cholesteryl oleate production as compared to control.

LDL = LDL peroxidation inhibitory effect (copper sulfate, malondialdehyde by thiobarbituric acid method); type: biochemical, rabbit; details: concentration 10^-5M; 37°C, 24 hours; malondialdehyde production inhibitory ratio
Description: LDL Peroxidation Inhibitory Effect
Male Japanese white rabbits weighing 2-2.5 kg were bred on 100 g per day of a high cholesterol feed [added with cholesterol (1%), Clea Japan, Inc.] for 4 weeks. The blood was taken from carotid and plasma was obtained. Then, LDL was fractionated from the plasma by ultracentrifugation, dialyzed for one day and preserved at 4° C. LDL (400 μg) and aqueous copper sulfate solution (final concentration 5 μM) were added to bufferized Ham F-10 medium (2 ml, GIBCO, USA). DMSO or a solution (20 μl) of test compound dissolved in DMSO was added and the mixture was incubated at 37° C. for 24 hours. After the completion of the incubation, LDL peroxide in medium was allowed to develop color by thiobarbituric acid method and assayed as malondialdehyde. The activity of the test compound was expressed as malondialdehyde production inhibitory ratio (%), namely, the proportion of inhibition of production of malondialdehyde as compared to control.

Male Wister rats = assay: Serum total cholesterol reducing effect in rats on high cholesterol feed; type: in vivo; details: oral, once a day for 3 days, rat
Description: Serum Total Cholesterol Reducing Effect
Male Wister rats weighing 180-200 g were bred under free access to a high cholesterol feed [added with cholesterol (1%), cholic acid (0.5%) and coconut oil (10%), Clea Japan, Inc.] for 3 days, during which period a test compound (10-100 mg/kg) suspended in 5% gum arabic solution was forcibly administered once a day orally for 3 days. Only 5% gum arabic solution was administered to control animals. After final administration, the test animals were fasted for 5 hours and the blood was taken. The serum total cholesterol level was determined using a commercially available assay kit (cholesterol-E-Test Wako, Wako Pure Chemical Industries, Ltd.). The activity of the test compound was expressed as a proportion (%) of reduction of serum total cholesterol level, namely, the proportion of reduction of serum total cholesterol as compared to control.

plasma = assay: Plasma lipoperoxidation inhibitory effect (copper sulfate, malondialdehyde by thiobarbituric acid method); type: biochemical, rabbit; details: concentration 10^-5M; 37°C, 3 hours; malondialdehyde production inhibitory ratio
Description: Plasma Lipoperoxidation Inhibitory Effect
The blood was taken from male Japanese white rabbits weighing 2-2.5 kg under anesthesia and heparinized plasma was separated by a conventional method. To the plasma (2.0 ml) was added DMSO or a solution (20 μl, final concentration 10^−5 M) of test compound dissolved in DMSO, and aqueous copper sulfate solution (final concentration 5 mM) was added immediately thereafter. The mixture was incubated at 37° C. for 3 hours. After the completion of the incubation, 20% trichloroacetic acid was added to stop the reaction. Then, the mixture was centrifuged at 4° C., 4,500 rpm for 15 minutes. The lipoperoxide in the supernatant thus obtained was assayed as malondialdehyde upon color development by thiobarbituric acid method. The activity of the test compound was expressed as malondialdehyde production inhibitory ratio (%), namely, the proportion of inhibition of production of malondialdehyde as compared to control.

Row | Compound | Result of Exp. Ex. 1: ACAT inhibition (ACAT; concentration 10^-5M) | Result of Exp. Ex. 3: LDL peroxidation inhibition (LDL) | Result of Exp. Ex. 2: reduction of serum total cholesterol (Male Wister rats; dose 100 mg/kg/day) | Result of Exp. Ex. 4: plasma lipoperoxidation inhibition (plasma) | Result of Exp. Ex. 2: reduction of serum total cholesterol (Male Wister rats; dose 30 mg/kg/day) | Result of Exp. Ex. 2: reduction of serum total cholesterol (Male Wister rats; dose 10 mg/kg/day) | Result of Exp. Ex. 1: ACAT inhibition (ACAT; concentration 10^-4M)
1 | CCCCCCN1CCc2c1cc(C)c(NC(=O)NCCCC)c2C [Example 1, 1-butyl-3-(1-hexyl-4,6-dimethylindolin-5-yl)urea] | 76.6 ** % | 99.2% | 12.9 *** % | 94.3% |  |  | 
2 | CCCCCCN1CCc2c1cc(C)c(NC(=O)C(C)(C)C)c2C [Example 2, N-(1-hexyl-4,6-dimethylindolin-5-yl)-2,2-dimethylpropanamide] | 59.9 ** % | 99.5% |  | 95.8% |  |  | 
3 | CCCCCCN1CCc2c(C)cc(C)c(NC(=O)NCCCC)c21 [Example 4, 1-butyl-3-(1-hexyl-4,6-dimethylindolin-7-yl)urea] | 94.9 ** % | 59.5% |  | 92.0% | 21.4 ** % |  | 
4 | CCCCC(C)(C)C(=O)Nc1c(C)cc(C)c2c1N(CC)CC2 [Example 6] | 99.8 ** % | 24.8% |  | 37.4% | 53.3 ** % |  | 
5 | CCCCCCN1CCc2c(OC)cc(OC)c(NC(=O)C(C)(C)C)c21 [Example 7] | 96.2 ** % | 86.6% |  | 86.4% | 19.2 ** % |  | 
6 | CCCCN1CCc2c(C)cc(C)c(NC(=O)C(C)(C)C)c21 [Example 8] | 99.7 ** % | 91.9% |  | 85.1% | 48.0 ** % |  | 
7 | CCCCN1CCc2c(C)cc(C)c(NC(=O)C(C)(C)CCCC)c21 [Example 9] | 81.3 ** % | 93.7% |  | 81.6% | 51.3 ** % |  | 
8 | CCCCCCC(C)(C)C(=O)Nc1c(C)cc(C)c2c1N(CCCC)CC2 [Example 10] | 98.7 ** % | 18.3% |  | 82.6% | 55.2 ** % |  | 
9 | CCCCCCCCN1CCc2c(C)cc(C)c(NC(=O)C(C)(C)C)c21 [Example 11] | 99.2 ** % | 91.6% |  | 78.8% |  | 59.5 * % | 
10 | CCCCCCC(C)(C)C(=O)Nc1c(C)cc(C)c2c1N(CC)CC2 [Example 13] | 96.0 ** % | 82.4% |  | 87.1% | 28.4 ** % |  | 
11 | CCCCCCN1CCc2c(C)cc(C)c(NC(=O)C(C)(C)CCCC)c21 [Example 14] | 96.6 ** % | 88.3% |  | 93.1% | 53.9 ** % |  | 
12 | CCCCCCN1CCc2c(C)cc(C)c(NC(=O)C(C)(C)CCCCCC)c21 [Example 15] | 93.1 ** % | 12.3% |  | 90.1% |  | 35.0 * % | 
13 | CCCCCCN1CCc2c(C)cc(C)c(NC(=O)C(C)C)c21 [Example 17] | 96.7 ** % | 89.6% |  | 91.1% |  | 27.0 * % | 
14 | CCCCCCN1CCc2c(C)cc(C)c(NC(=O)CC(C)(C)CC(=O)O)c21 [Example 18] |  | 34.0% |  | 87.1% | 22.3 ** % |  | 69.6 * %
15 | CCCCCCN1CCc2c(C)cc(C)c(NC(=O)C(C)(C)CCC(=O)O)c21 [Example 20] |  | 67.8% |  | 91.1% |  | 7.8 * % | 22.7 * %
16 | CCCCCCN1CCc2c(C)cc(C)c(NC(=O)CCCC)c21 [Example 21] | 94.4 ** % | 92.1% |  | 91.4% |  | 28.3 * % | 
17 | CC(=O)OCCN1CCc2c(C)cc(C)c(NC(=O)C(C)(C)C)c21 [Example 22] | 78.5 ** % | 40.6% | 38.6 *** % | 92.8% |  |  | 
18 | COCCN1CCc2c(C)cc(C)c(NC(=O)C(C)(C)C)c21 [Example 23] | 88.8 ** % | 54.8% |  | 90.5% | 23.6 ** % |  | 
19 | CCOCCN1CCc2c(C)cc(C)c(NC(=O)C(C)(C)C)c21 [Example 24] | 97.1 ** % | 42.2% |  | 90.5% | 28.3 ** % |  | 
20 | Cc1cc(C)c(NC(=O)C(C)(C)C)c2c1CCN2CCCCCC(=O)O [Example 26] | 26.5 ** % | 43.3% |  | 90.1% | 37.4 ** % |  | 
21 | CCCCCCN1CCc2c(C)cc(C)c(NC(=O)C(C)(C)CO)c21 [Example 28] | 79.4 ** % | 92.2% | 20.8 *** % | 91.1% |  |  | 
22 | CCCCCCN1CCc2c(C)cc(C)c(NC(=O)C(C)(C)COC(C)=O)c21 [Example 29] | 86.6 ** % | 91.9% |  | 91.1% | 6.9 ** % |  | 
23 | Cc1cc(C)c(NC(=O)C(C)(C)C)c2c1CCN2CCC(C)C [Example 31] | 93.8 ** % | 90.3% |  | 90.8% | 49.0 ** % |  | 
24 | Cc1cc(C)c(NC(=O)C(C)(C)C)c2c1CCN2CC(C)C [Example 32] | 93.9 ** % | 85.3% |  | 89.1% | 57.4 ** % |  | 
25 | Cc1cc(C)c(NC(=O)N(Cc2ccc3c(c2)Cc2ccccc2-3)C2CCCCCC2)c(C)c1 [YM-750, 1-cycloheptyl-1-[(2-fluorenyl)methyl]-3-(2,4,6-trimethylphenyl)urea, reference compound] | 92.3 ** % | 0% |  |  | 43.8 ** % |  | 
